Source: ChEMBL document CHEMBL1201862, “PubChem BioAssay data set” (2004)
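These data come from cells grown in 96-well plates and exposed to compound for 48 hours at five concentrations. The concentration for 50% growth inhibition is given as GI50.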 Active and inactive are the calls of the source. No stated cut-off is given here; in the data, active = GI50 up to about 1.1 µM and inactive = higher.

Experiments:
Assay in all cases: DTP human tumour cell line panel, 48 h
[1] = test system: SW-620
[2] = test system: ACHN
[3] = test system: HT-29
[4] = test system: NCI-H460
[5] = test system: M14
[6] = test system: DU-145
[7] = test system: HCT-15
[8] = test system: HOP-62
[9] = test system: SF-539
[10] = test system: TK-10
[11] = test system: MOLT-4
[12] = test system: MDA-MB-435
[13] = test system: MCF7
[14] = test system: NCI-H226
[15] = test system: Hs-578T
[16] = test system: SNB-75
[17] = test system: MDA-N
[18] = test system: SK-MEL-2
[19] = test system: UO-31

| Structure (SMILES) | GI50 [1] | GI50 [2] | GI50 [3] | GI50 [4] | GI50 [5] | GI50 [6] | GI50 [7] [µM] | GI50 [8] | GI50 [9] | GI50 [10] | GI50 [11] | GI50 [12] | GI50 [13] | GI50 [14] | GI50 [15] | GI50 [16] | GI50 [17] | GI50 [18] | GI50 [19] |
| --- | --- | --- | --- | --- | --- | --- | --- | --- | --- | --- | --- | --- | --- | --- | --- | --- | --- | --- | --- |
| Cc1ccc(S(=O)(=O)O)cc1.c1cc2c(c(NC3=NCCN3)c1)CCCC2 | 56.2 µM (inactive) | > 100 µM (inactive) | 99.5 µM (inactive) | > 100 µM (inactive) | > 100 µM (inactive) | > 100 µM (inactive) | > 100 | > 100 µM (inactive) | > 100 µM (inactive) | > 100 µM (inactive) | > 100 µM (inactive) | > 100 µM (inactive) | > 100 µM (inactive) | > 100 µM (inactive) | > 100 µM (inactive) | 89.3 µM (inactive) | > 100 µM (inactive) | > 100 µM (inactive) |  |
| O=c1[nH]/c(=C/c2ccc3c(c2)OCO3)c(=O)[nH]/c1=C/c1ccc2c(c1)OCO2 | > 10 µM (inactive) | > 10 µM (inactive) | > 10 µM (inactive) | > 10 µM (inactive) | > 10 µM (inactive) | > 10 µM (inactive) | > 10 | > 10 µM (inactive) | > 10 µM (inactive) | > 10 µM (inactive) | > 10 µM (inactive) | > 10 µM (inactive) | > 10 µM (inactive) | > 10 µM (inactive) | > 10 µM (inactive) | > 10 µM (inactive) | > 10 µM (inactive) | > 10 µM (inactive) | > 10 µM (inactive) |
| CC1(c2ccc(Cl)s2)CC(c2ccc(Cl)s2)=C(C#N)C(=C(C#N)C#N)N1 (configuration not stated) | 13.9 µM (inactive) | 17.5 µM (inactive) | 19.2 µM (inactive) | 29 µM (inactive) | 19.4 µM (inactive) | 16.9 µM (inactive) | 17.4 | 18.8 µM (inactive) | 26.3 µM (inactive) | 22.4 µM (inactive) | 28.1 µM (inactive) | 18.4 µM (inactive) | 17.6 µM (inactive) | 26.9 µM (inactive) | 29.5 µM (inactive) | 22.2 µM (inactive) | 22.4 µM (inactive) | 18.6 µM (inactive) | 18.7 µM (inactive) |
| CC(=O)N1C(Nc2ccccn2)CCN1c1ccccc1 (configuration not stated) | > 10 µM (inactive) | 7.36 µM (inactive) | > 10 µM (inactive) | > 10 µM (inactive) | > 10 µM (inactive) | > 10 µM (inactive) | > 10 | > 10 µM (inactive) | > 10 µM (inactive) | > 10 µM (inactive) | > 10 µM (inactive) | > 10 µM (inactive) | > 10 µM (inactive) | > 10 µM (inactive) | > 10 µM (inactive) | > 10 µM (inactive) | > 10 µM (inactive) | > 10 µM (inactive) | > 10 µM (inactive) |
| CCN(CCCl)c1cccc(NC(=O)c2ccc(C(=O)Nc3cccc(CN(C)C)c3)cc2)c1 | 0.034 µM (active) | 0.0354 µM (active) | 0.0597 µM (active) | 0.0537 µM (active) | 0.204 µM (active) | 0.0432 µM (active) | 0.605 | 0.0641 µM (active) | 0.244 µM (active) | 0.372 µM (active) | 0.0246 µM (active) | 0.0243 µM (active) | 0.0215 µM (active) | 0.219 µM (active) | 0.0618 µM (active) | 0.207 µM (active) | 0.05 µM (active) | 0.0301 µM (active) | 0.475 µM (active) |
| CN(C)CCNC(=O)c1cccc2c1Oc1cccc([N+](=O)[O-])c1O2 | 19.3 µM (inactive) | 18.7 µM (inactive) | 15.2 µM (inactive) | 17.3 µM (inactive) | 16.2 µM (inactive) | 17.7 µM (inactive) | 33.8 | 16.1 µM (inactive) | 18.2 µM (inactive) | 21.4 µM (inactive) | 4.74 µM (inactive) | 16.5 µM (inactive) | 19.1 µM (inactive) | 12.7 µM (inactive) | 18.4 µM (inactive) | 13.9 µM (inactive) | 17.7 µM (inactive) | 23.5 µM (inactive) | 15.7 µM (inactive) |
| CC(=O)OC1C(C)OC(OC(=O)C2CCC3C(C2)OC2(CC(OC(=O)/C=C/c4ccccc4)C(C)CO2)C32CO2)C(OC2OC(C)C(O)C(OC(C)=O)C2O)C1O (configuration not stated) | < 0.01 µM (active) | < 0.0421 µM (active) | < 0.01 µM (active) | < 0.01 µM (active) | < 0.01 µM (active) | < 0.01 µM (active) | 0.319 | < 0.012 µM (active) | < 0.01 µM (active) | 0.0131 µM (active) | < 0.01 µM (active) | < 0.01 µM (active) | < 0.01 µM (active) | < 0.01 µM (active) | < 0.01 µM (active) | < 0.01 µM (active) | < 0.01 µM (active) | < 0.01 µM (active) | 0.499 µM (active) |
| COc1cc2ccc(/C=C\[N+](=O)[O-])cc2cc1OC | 2.65 µM (inactive) | 1.81 µM (inactive) | 2 µM (inactive) | 15.7 µM (inactive) | 2.65 µM (inactive) | 2.16 µM (inactive) | 3.21 | 2.83 µM (inactive) | 1.97 µM (inactive) | 3.08 µM (inactive) | 5.09 µM (inactive) | 2.86 µM (inactive) | 2.24 µM (inactive) | 27.7 µM (inactive) | 7.69 µM (inactive) | 2.48 µM (inactive) | 2.18 µM (inactive) | 2.86 µM (inactive) | 1.82 µM (inactive) |
| C=CCN1C[C@H](C)N([C@H](c2ccc(C(=O)NC(CC)CC)cc2)c2cccc(OC)c2)C[C@H]1C | 29.9 µM (inactive) | 33.9 µM (inactive) | 25.1 µM (inactive) | 31 µM (inactive) | 17.7 µM (inactive) | 81.8 µM (inactive) | 29.4 | > 100 µM (inactive) | 20.4 µM (inactive) | 66.4 µM (inactive) | > 100 µM (inactive) | 35.6 µM (inactive) | 35.2 µM (inactive) | 70.5 µM (inactive) | > 100 µM (inactive) | > 100 µM (inactive) | 37.3 µM (inactive) | 20.9 µM (inactive) | 21.2 µM (inactive) |
| O=C1CCC2(CC1CC(Sc1ccccc1)Sc1ccccc1)OCCO2 (configuration not stated) | 49.4 µM (inactive) | 38.6 µM (inactive) | 61.4 µM (inactive) | 31.8 µM (inactive) | 43.9 µM (inactive) | 88.5 µM (inactive) | 37.1 | 81.1 µM (inactive) | 43.1 µM (inactive) | 62.7 µM (inactive) | 20.7 µM (inactive) | 36.7 µM (inactive) | 32 µM (inactive) | 58.7 µM (inactive) | 23.2 µM (inactive) | 80.4 µM (inactive) | 42.4 µM (inactive) | 24.9 µM (inactive) | 36.1 µM (inactive) |
| CC1(C)N=C(/C(Cl)=[N+](/[O-])C(=O)c2ccc(F)cc2)C(C)(C)N1O | 15.1 µM (inactive) | 19.1 µM (inactive) | 19.9 µM (inactive) | 31.9 µM (inactive) | 16.1 µM (inactive) | 29.6 µM (inactive) | 13.4 | 19.6 µM (inactive) | 23.7 µM (inactive) | 16.1 µM (inactive) |  | 21.4 µM (inactive) | 19.1 µM (inactive) | 22.7 µM (inactive) | 26.6 µM (inactive) | 16.6 µM (inactive) | 16.4 µM (inactive) | 17.1 µM (inactive) | 21 µM (inactive) |
| COc1ccccc1NC1Oc2cc3c(cc2C(c2cc(OC)c(OC)c(OC)c2)C1C)OCO3 (configuration not stated) | 1.19 µM (inactive) | 9.91 µM (inactive) | 2.11 µM (inactive) | 4.09 µM (inactive) | 3.26 µM (inactive) | 4.75 µM (inactive) | 3.06 | 5.26 µM (inactive) | 1.7 µM (inactive) | > 100 µM (inactive) | 3.8 µM (inactive) | 0.242 µM (active) | 2.65 µM (inactive) | 4.35 µM (inactive) | 6.44 µM (inactive) | 0.951 µM (active) | 0.358 µM (active) | 5.85 µM (inactive) | 3.58 µM (inactive) |
| O=c1cc(N2CCCC2)[nH]c(=O)n1-c1cccc(Cl)c1 | > 100 µM (inactive) | > 100 µM (inactive) | > 100 µM (inactive) | > 100 µM (inactive) | > 100 µM (inactive) | > 100 µM (inactive) | > 100 | > 100 µM (inactive) | > 100 µM (inactive) | > 100 µM (inactive) | > 100 µM (inactive) | > 100 µM (inactive) | > 100 µM (inactive) | > 100 µM (inactive) | > 100 µM (inactive) | > 100 µM (inactive) | > 100 µM (inactive) | > 100 µM (inactive) |  |
| Cc1[nH]n(-c2ncc(C(=O)O)c(=O)[nH]2)c(=O)c1CCO | > 100 µM (inactive) | > 100 µM (inactive) | > 83.8 µM (inactive) | > 75.7 µM (inactive) | > 100 µM (inactive) | > 100 µM (inactive) | > 100 | > 100 µM (inactive) | > 84.9 µM (inactive) | > 100 µM (inactive) | > 100 µM (inactive) | > 100 µM (inactive) | > 92.7 µM (inactive) | > 100 µM (inactive) | > 100 µM (inactive) | > 88.5 µM (inactive) | > 100 µM (inactive) | > 100 µM (inactive) | > 100 µM (inactive) |
| O=C1/C(=N/CCc2cc(Br)c(O)c(Br)c2)C=C(O)c2cccnc21 | 2.17 µM (inactive) | 2.68 µM (inactive) | 2.6 µM (inactive) | 1.17 µM (inactive) | 1.31 µM (inactive) | 1.45 µM (inactive) | 2.36 | 1.11 µM (active) | 0.918 µM (active) | 3.33 µM (inactive) | 6.75 µM (inactive) | 0.344 µM (active) | 1.61 µM (inactive) | 1.87 µM (inactive) | 1.49 µM (inactive) | 1.13 µM (inactive) | 0.4 µM (active) | 1.52 µM (inactive) | 3.12 µM (inactive) |
